Data: patent US5491072A, “N-alkylacridan carboxyl derivatives useful for chemiluminescent detection” (Lumigen, Inc., priority 1993, dated 1996)

Assays:
[1] = target: T1, horseradish peroxidase (Armoracia rusticana, UniProt P00433); assay: Comparison of compounds 1a-e at pH 8.9, time course and total intensity of chemiluminescence; type: biochemical; settings: 0.01 mM acridan, 0.1M phosphate pH 8.9, 6.2 mM H2O2, 2.25 mM p-iodophenol, 1×10^-13 mol HRP; for I max (RLU), peak light intensity: 0.5% Tween 20, 1 mM EDTA
T1 sequence (P00433 31-338 limits assumed): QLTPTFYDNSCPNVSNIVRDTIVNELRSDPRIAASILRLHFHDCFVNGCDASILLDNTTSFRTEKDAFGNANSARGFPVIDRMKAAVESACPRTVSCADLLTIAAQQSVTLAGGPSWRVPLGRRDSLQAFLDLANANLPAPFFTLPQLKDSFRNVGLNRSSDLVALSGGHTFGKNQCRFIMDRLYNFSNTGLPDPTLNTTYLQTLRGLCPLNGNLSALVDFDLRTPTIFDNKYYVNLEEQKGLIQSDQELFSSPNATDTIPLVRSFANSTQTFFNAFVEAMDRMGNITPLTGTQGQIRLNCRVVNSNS
Protocol: (§1) The experiments in the following examples were performed using a Turner Designs TD-20e luminometer fitted with neutral density filter for light attenuation. Data collection, analysis and display were software controlled. Constant temperature was maintained by means of an external circulating water bath connected to the luminometer.
A 200 μL volume of a formulation containing 0.01 mM acridan compound 1a-e in 0.1M phosphate buffer, pH 8.9, […] (6.2 mM) H2 O2, 2.25 mM p-iodophenol, 0.5% (w/w) Tween 20 and 1 mM EDTA was reacted with 1×10^-13 mol of horseradish peroxidase. […] Compared below are the peak light intensity (Imax) in relative light units (RLU), the time to maximum light intensity (tmax) and total light output.

[2] = target: T2, HRP (Armoracia rusticana, UniProt P00433); assay: Improvement of detection by phenol enhancers; type: biochemical, horseradish; settings: 2.25 mM enhancer, 0.1 mM 1b, 0.8 mM H2O2, 0.5% Tween 20, 0.1M tris pH 8.5, 25° C., 1×10^-15 mol HRP, 30 min
T2 sequence (P00433 31-338 limits assumed): T1 sequence (P00433 31-338 limits assumed)
Protocol: as §1
To 220 μL of a formulation containing 0.1 mM 1b, 2.25 mM enhancer, 0.8 mM H2 O2, 0.5% (w/w) Tween 20 and 1 mM EDTA in 0.1M tris buffer, pH 8.5 at 25° C. an aliquot containing 1×10^-15 mol of HRP was injected and the chemiluminescence at 30 min was measured.

[3] = target: T2, HRP; assay: Optimization of enhancer and peroxide concentration, HRP-catalyzed oxidation of 1b; type: biochemical, horseradish; settings: at the best level, 7×10^-16 mol HRP, 15 min, 0.1M tris pH 8.0, substrate 1b
Protocol: as §1
Enhancement of light emission from the HRP-catalyzed oxidation of 1b was studied using p-iodophenol. A series of concentrations of p-iodophenol (0.23 mM-4.5 mM) was used in 0.1M tris buffer, pH 8.0. Signal to background ratios obtained after incubation with 7×10^-16 mol of HRP for 15 min were compared using different assay reagents 1b (0.1 mM-0.05 mM) and peroxide (0.2 mM-0.8 mM)]. The best compromise between sensitivity and concentration was obtained using 1.1 mMp-iodophenol with 0.8 mMperoxide and 0.05 mM 1b. At the best level, 2500-fold enhancement in chemiluminescence intensity (compared to an identical solution containing no enhancer) was obtained using p-iodophenol with 7×10^-16 mol of enzyme.

[4] = Improvement of detection by surfactants, background luminescence of 1b solution without peroxidase; settings: Tween 20 0.5%-1%; no added peroxidase
Source text: The improvement occurs through minimizing the background chemiluminescence in the absence of added peroxidase, possibly due to a slowing of the autoxidative decomposition of the ester. In one experiment, Tween 20 (0.5%-1%) decreased the background luminescence from a solution of 1b by a factor of 65 compared to a similar solution lacking the surfactant.

[5] = benzoyl peroxide, aqueous solution; cited from earlier work

| Compound | I max (RLU), peak light intensity [1] | I total (RLU), total light output [1] | t max (min), time to maximum light intensity [1] | S/B [2] | other results |
| --- | --- | --- | --- | --- | --- |
| CN1c2ccccc2C(C(=O)Oc2cccc(O)c2)c2ccccc21 [Compound 1c, 3'-Hydroxyphenyl 10-methylacridan-9-carboxylate] | 24 RLU | 3.6 × 10^4 RLU | 7.8 min |  |  |
| Oc1ccc(I)cc1 [p-iodophenol] |  |  |  | 600 | enhancement in chemiluminescence intensity (compared to an identical solution containing no enhancer) [3]: 2500 fold |
| Oc1ccc2ccccc2c1 [Compound 2-naphthol, 2-naphthol] |  |  |  | 138 |  |
| Cc1ccc(S(=O)(=O)N(C(=O)C2c3ccccc3N(C)c3ccccc32)c2ccccc2)cc1 [Compound 1e] | 8160 RLU | 1.5 × 10^6 RLU | 1.4 min |  |  |
| CN1c2ccccc2C(C(=O)Oc2ccccc2)c2ccccc21 [Compound 1a, Phenyl 10-methylacridan-9-carboxylate] | 247 RLU | ca. 6 × 10^5 RLU | 9.6 min |  |  |
| Tween 20 |  |  |  |  | decrease of background luminescence from a solution of 1b (factor, compared to a similar solution lacking the surfactant) [4]: 65 |
| O=C(O)C=Cc1ccc(O)cc1 [p-hydroxycinnamic acid] |  |  |  | 9 |  |
| CN1c2ccccc2C(C(=O)Oc2ccc3cc(O)ccc3c2)c2ccccc21 [Compound 1d, 6'-Hydroxynaphthyl 10-methylacridan-9-carboxylate] | 992 RLU | 7.4 × 10^5 RLU | 1.8 min |  |  |
| CCCCCCCCCCCCOS(=O)(=O)[O-].[Na+] [SDS, sodium dodecyl sulfate] |  |  |  |  | decrease of background luminescence from a solution of 1b (factor, compared to a similar solution lacking the surfactant) [4]: similarly lowers background luminescence |
| Oc1ccc(-c2ccccc2)cc1 [p-phenylphenol] |  |  |  | 200 |  |
| c1ccc2c(c1)Cc1ccccc1N2 [acridan] |  |  |  |  | chemiluminescence efficiency (OCL) [5]: 3×10^-7 |
